IC50 and biological activity data for five compounds are collected here from patent US8217022B2, “Analogues of 1,3-bis(4-nitrophenyl)triazenes, their pharmaceutically acceptable salts and N-acyl derivatives for tumour treatment” (Rudjer Boskovic Institute, priority 2009, dated 2012).

Series [1] deals with human cervical carcinoma HeLa cells. As to the kind of experiment: Cytotoxicity by spectrophotometric MTT method on HeLa cells. Format: cell-based. The following applies: for IC50: MTT. The procedure: (§1) The human cervical carcinoma HeLa cells were used as a model for testing the cytotoxicity of new compounds. Said cells grow as single-layer culture in nutrient Dulbecco's modified Eagle's medium (DMEM, Gibco Life Technologies, Grand Island, USA) with 10% of fetal bovine serum (Gibco) and antibiotics (penicillin 100 U, streptomicine 0.1 mg, Sigma Chem. Co., St. Louis, USA). They were grown in thermostat at 37° C. with 5% CO2 in a humidified atmosphere in plastic cell culture flasks (BD Falcon, Germany).
The compounds were dissolved in dimethyl sulfoxide (Merck, Darmstadt, Germany) in concentrations of 20-120 mM (depending on the compound) and stored in aliquots at −20° C. as stock solutions. The stock solutions were diluted to the appropriate concentrations just before the experiments.
(§2) The cytotoxicity of new compounds was determined by spectrophotometric MTT method (Michisch et al., Urol Res 18(990)131). It is a colorimetric method based on the ability of living cells to reduce the yellow tetrazolium salt 3-(4,5-dimethylthiazol-2-yl)-2,5-diphenyltetrazolium bromide) (MTT; Merck) to violet formazane crystals using mitochondrial dehydrogenase and cytochrome b and c. The crystals were dissolved in dimethyl sulfoxide (DMSO), followed by spectrophotometric measurement of their absorbance at 545 nm.
Cells were seeded in 96-well microtitration plates (BD Falcon) (2.5×10^3/180 μl), and incubated overnight at temperature of 37° C. to allow the cells to attach to the growth medium. Next day the compounds were added to the growth medium in a wide range of concentrations, from 0.05 to 100 μM (each concentration in quadruplicate). After 72 hours, the samples were coloured with the MTT dye and left for 3 hours in the thermostat. Formed crystals were dissolved in dimethyl sulfoxide and the absorbance of each sample was measured at 545 nm. The survival of cells was calculated according to the formula: […]
The experiments were repeated 2-3 times. […] IC50 values were read from the curve. IC50 is the concentration of a compound that reduces the survival of treated cells to 50%.
The cytotoxicity of the new compounds was determined on human cervical carcinoma HeLa cells by the spectrophotometric MTT method. It is expressed as IC50 value, i.e. as the concentration of a compound that reduces cell survival to 50%.

For another series, the system named is mammalian cells. The following applies: from publication, read-out: cytotoxicity IC50; cited from earlier work.
The test system of series [2] is HeLa CK cells resistant to cisplatin and cross-resistant to vincristine and methotrexate. As to the kind of experiment: Cytotoxicity by MTT method on HeLa CK resistant sub-line. The following applies: Table 3. It counts as cell-based, human. As to the method:
as §2
Cells were seeded in 96-well microtitration plates (BD Falcon) (2.5×10^3/180 μl), and incubated overnight at temperature of 37° C. to allow the cells to attach to the growth medium. Next day the compounds were added to the growth medium in a wide range of concentrations, from 0.05 to 100 μM (each concentration in quadruplicate). […] Formed crystals were dissolved in dimethyl sulfoxide and the absorbance of each sample was measured at 545 nm. The survival of cells was calculated according to the formula: […]
(§3) The experiments were repeated 2-3 times. […] IC50 values were read from the curve. […]
It was tested on parental cervical carcinoma HeLa cells and their sub-line HeLa CK cells resistant to cisplatin and cross-resistant to vincristine and methotrexate (Osmak and Eljuga, Res Exp Med 193(1993) 389). […] Cytotoxicity was determined by spectrophotometric MTT method and expressed as IC50.
Background: Formazan colour is commonly taken as a measure of viable cells.

Series [3] concerns human embryonic kidney HEK 293 cells. The experiment in a line: Cytotoxicity by MTT method on HEK 293 cells. It counts as cell-based. The following applies: HEK 293, MTT; Table 2.
Another series relates to glioblastoma A1235 cells. As to the kind of experiment: Cytotoxicity by MTT method on A1235 cells. It counts as cell-based. The following applies: Table 2.
Series [4] deals with normal human cells, keratinocytes. As to the kind of experiment: Cytotoxicity on keratinocytes, survival by crystal violet dye. It counts as cell-based. The following applies: Table 2. As to the method: as §1
The compounds were dissolved in dimethyl sulfoxide (Merck, Darmstadt, Germany) in concentrations of 20-120 mM (depending on the compound) and stored in aliquots at −20° C. as stock solutions. […]
Cells were seeded in 96-well microtitration plates (BD Falcon) (2.5×10^3/180 μl), and incubated overnight at temperature of 37° C. to allow the cells to attach to the growth medium. […] Formed crystals were dissolved in dimethyl sulfoxide and the absorbance of each sample was measured at 545 nm. The survival of cells was calculated according to the formula: […]
as §3
The cytotoxicity was determined by spectrophotometric MTT method (except for keratinocytes, which have low metabolic activity, so their survival was determined by addition of crystal violet dye) and expressed as IC50.

For series [5], the system named is human ovarian adenocarcinoma OVCAR cells. The experiment in a line: Cytotoxicity by MTT method on OVCAR cells. It counts as cell-based. The following applies: Table 2.
The subject of series [6] is laryngeal carcinoma HEp-2 cells. The experiment in a line: Cytotoxicity by MTT method on HEp-2 cells. It counts as cell-based.
In series [7] the test system is CA3 cells resistant to cisplatin and cross-resistant to vincristine, methotrexate and mitomycin C. As to the kind of experiment: Cytotoxicity by MTT method on CA3 resistant sub-line. It counts as cell-based. The following applies: Table 3.
Series [8] concerns rhabdomiosarcoma RD cells. As to the kind of experiment: Cytotoxicity by MTT method on RD cells. It counts as cell-based. The following applies: Table 2.
[9] abbreviates: HeLa cells, 72 hours, Table 1, read-out: Cytotoxicity (IC50 μM).

Structures are written as SMILES. Read-outs that look alike come from different tables or passages of the source. Some results are limits rather than exact numbers.

As for `O=[N+]([O-])c1ccc(N=NNc2ccc([N+](=O)[O-])cc2Br)c(Br)c1` [VM-97], the half-maximal inhibitory concentration (IC50) in [1] (setting [9]) was determined as 0.45 µM.
As to `N=C(N)c1ccc(N=NNc2ccc(C(=N)N)cc2)cc1` [berenil, Berenil], the 50% inhibitory concentration (IC50) in the series on mammalian cells is more than 100 µM.
For `O=[N+]([O-])c1ccc(N=NNc2ccc([N+](=O)[O-])cc2Br)c(Br)c1` [VM-94c], the IC50 worked out at 3.9 µM in [2]; 7.9 µM in [3]; 5.45 µM with glioblastoma A1235 cells; 3.65 µM in series [1] (HeLa cells, 72 hours, Table 1, listed as VM 94c, read-out: Cytotoxicity (IC50 μM)); 3.4 µM in series [1] (HeLa parental cells, Table 3, read-out: IC50); 3.65 µM in [1] (HeLa, Table 2, read-out: IC50). Besides, the half-maximal inhibitory concentration (IC50) is 9.45 µM in series [4]; 3.4 µM in series [5]; 5.5 µM in series [6] (HEp2 parental cells, MTT, Table 3); 5.5 µM in [6] (HEp-2, MTT, Table 2); 7.2 µM in [7]; 5.1 µM in series [8].
Consider `O=[N+]([O-])c1ccc(N=NNc2ccc([N+](=O)[O-])cc2)cc1` [1,3-bis(4-nitrophenyl)triazene], for which, in [1] (tested during the testing of the compounds of the invention), the biological activity result is on record as “did not show any biological activity”.
Take `O=[N+]([O-])c1ccc(N=NNc2ccc([N+](=O)[O-])cc2Cl)c(Cl)c1` [VM-102]: the IC50 in series [1] (setting [9]) was 2.6 µM.

A word on the IC50: it is the midpoint of a concentration-inhibition curve.
